According to patent publication US6545170B2, “2-amino-5, 6 heptenoic acid derivatives useful as nitric oxide synthase inhibitors” (Pharmacia Corporation, priority 2000, dated 2003):
Counter-ions that a name gives are not always drawn.

Columns and labels:
[1] = tested on: inducible nitric oxide synthase activity (plasma nitrite/nitrate levels); assay: In vivo assay: LPS-induced increase in plasma nitrite/nitrate; conditions: Rattus norvegicus; rats, endotoxin (LPS) i.p., oral administration, 5 hours post-treatment; read-out: ED50, inhibition of LPS-induced increase in plasma nitrite/nitrate levels
Protocol: Plasma nitrite/nitrate levels can be determined 5 hours post-treatment.

[2] = target: T1, human neuronal constitutive NOS (hncNOS) (Homo sapiens, UniProt P29475); assay: Citrulline assay for nitric oxide synthase, hncNOS; type: biochemical; conditions: recombinant enzyme, 30 μM L-arginine, calmodulin 40-100 nM
T1 construct: made in house; host or cells: Sf9 insect cells (baculovirus vector)
Excerpt: (§1) Nitric oxide synthase (NOS) activity can be measured by monitoring the conversion of L-[2,3-^3H]-arginine to L-[2,3-^3H]-citrulline (Bredt and Snyder, Proc. Natl. Acad. Sci. U.S.A., 87, 682-685, 1990 and Moore et al, J. Med. Chem., 39, 669-672, 1996). Human inducible NOS (hiNOS), human endothelial constitutive NOS (hecNOS) and human neuronal constitutive NOS (hncNOS) are each cloned from RNA extracted from human tissue. The cDNA for human inducible NOS (hiNOS) is isolated from a λcDNA library made from RNA extracted from a colon sample from a patient with ulcerative colitis. The cDNA for human endothelial constitutive NOS (hecNOS) is isolated from a λcDNA library made from RNA extracted from human umbilical vein endothelial cells (HUVEC) and the cDNA for human neuronal constitutive NOS (hncNOS) is isolated from a λcDNA library made from RNA extracted from human cerebellum obtained from a cadaver. The recombinant enzymes are expressed in Sf9 insect cells using a baculovirus vector (Rodi et al, in The Biology of Nitric Oxide, Pt. 4: Enzymology. Biochemistry and Immunology; Moncada, S., Feelisch, M., Busse, R., Higgs, E., Eds.; Portland Press Ltd.: London, 1995; pp 447-450). Enzyme activity is isolated from soluble cell extracts and partially purified by DEAE-Sepharose chromatography. To measure NOS activity, 10 μL of enzyme is added to 40 μL of 50 mM Tris (pH 7.6) in the presence or absence of test compounds and the reaction initiated by the addition of 50 μL of a reaction mixture containing 50 mM Tris (pH 7.6), 2.0 mg/mL bovine serum albumin, 2.0 mM DTT, 4.0 mM CaCl2, 20 μM FAD, 100 μM tetrahydrobiopterin, 0.4 mM NADPH and 60 μM L-arginine containing 0.9 μCi of L-[2,3-^3H]-arginine. The final concentration of L-arginine in the assay is 30 μM. For hecNOS or hncNOS, calmodulin is included at a final concentration of 40-100 nM. […] After mixing the resin is allowed to settle and L-[2,3-^3H]-Citrulline formation is determined by counting aliquots of the supernatant with a liquid scintillation counter. […]

[3] = target: T2, human endothelial constitutive NOS (hecNOS) (Homo sapiens, UniProt P29474); assay: Citrulline assay for nitric oxide synthase, hecNOS; type: biochemical; conditions: recombinant enzyme, 30 μM L-arginine, calmodulin 40-100 nM
T2 construct: made in house; host or cells: Sf9 insect cells (baculovirus vector)
Excerpt: as §1

[4] = target: T3, Human inducible NOS (hiNOS) (Homo sapiens, UniProt P35228); assay: Citrulline assay for nitric oxide synthase, hiNOS; type: biochemical; conditions: recombinant enzyme, 30 μM L-arginine, 37° C. 15 minutes
T3 construct: made in house; host or cells: Sf9 insect cells (baculovirus vector)
Excerpt: as §1

Structure (SMILES)	ED50 [1] [mg/kg]	IC50 [2] [µM]	IC50 [3] [µM]	IC50 [4] [µM]
CC(=N)NC/C(C)=C\CC[C@H](N)C(=O)O [Example 1, (2S,5Z)-2-amino-6-methyl-7-[(1-iminoethyl)amino]-5-heptenoic acid, dihydrochloride]	< 0.1	–	–	–
CC(=N)NC/C(C)=C/CC[C@H](N)C(=O)O [Example 2, (2S,5E)-2-amino-6-methyl-7-[(1-iminoethyl)amino]-5-heptenoic acid, dihydrochloride]	–	523	1490	172
CC(=N)NC/C=C\CC[C@H](N)C(=O)O [Example 6, (2S,5Z)-2-amino-7-[(1-iminoethyl)amino]-5-heptenoic acid, dihydrochloride]	–	8	89	0.9
CC(=N)NC/C=C/CC[C@H](N)C(=O)O [Example 8, (2S,5E)-2-amino-7-[(1-iminoethyl)amino]-5-heptenoic acid, dihydrochloride]	–	150	418	20
